Results on 16 molecules are retold here after ChEMBL document CHEMBL3627635, “Synthesis and anti-proliferative activity of novel azazerumbone conjugates with chalcones” (Bioorg Med Chem Lett, 2015).

In brackets after ≈: the same amount, converted by molar mass.

What all share (type): functional, cell-based
The subject of one assay is MCF7. Put plainly: Antiproliferative activity against human MCF7 cells.
Another assay relates to P338. Description: Antiproliferative activity against mouse […] cells.
A further assay deals with HepG2. Put plainly: Antiproliferative activity against human HepG2 cells.
For a further assay, the system named is SW480. Description: Antiproliferative activity against human SW480 cells.
The nature of assay [1]: Antiproliferative activity against human Lu cells.
The subject of the next assay is HeLa. Description: Antiproliferative activity against human HeLa cells.

As for `COc1ccc(/C=C/C(=O)c2ccc(OCCn3cc(CN4C(=O)/C=C/C(C)(C)C/C=C(\C)CC/C=C/4C)nn3)cc2O)cc1`, the IC50 (usually the concentration needed to halve the response being measured) was determined as 2.85 µg/mL (≈ 4.67 µM) with MCF7; 1.21 µg/mL (≈ 1.98 µM) in the assay with P338; 2.06 µg/mL (≈ 3.37 µM) in the assay on HepG2; 3.24 µg/mL (≈ 5.3 µM) with SW480; 1.67 µg/mL (≈ 2.73 µM) in assay [1].

Take `COc1cccc(/C=C/C(=O)c2ccc(OCCn3cc(CN4C(=O)/C=C/C(C)(C)C/C=C(\C)CC/C=C/4C)nn3)cc2O)c1`: the IC50 in the assay on MCF7 is 1.12 µg/mL (≈ 1.83 µM); with P338, 0.89 µg/mL (≈ 1.46 µM); with HepG2, 1.01 µg/mL (≈ 1.65 µM); in the assay on SW480, 0.95 µg/mL (≈ 1.56 µM); in assay [1], 0.61 µg/mL (≈ 0.999 µM).

For `COc1ccccc1/C=C/C(=O)c1ccc(OCCn2cc(CN3C(=O)/C=C/C(C)(C)C/C=C(\C)CC/C=C/3C)nn2)cc1O`, the IC50 came to 1.17 µg/mL (≈ 1.92 µM) in the assay on MCF7; 1.1 µg/mL (≈ 1.8 µM) in the assay on P338; 1.71 µg/mL (≈ 2.8 µM) with HepG2; 0.9 µg/mL (≈ 1.47 µM) with SW480; 2.4 µg/mL (≈ 3.93 µM) in assay [1].

For `COc1cc(/C=C/C(=O)c2ccc(OCCn3cc(CN4C(=O)/C=C/C(C)(C)C/C=C(\C)CC/C=C/4C)nn3)cc2O)cc(OC)c1OC`, the IC50 in the assay on MCF7 turned out to be 2.78 µg/mL (≈ 4.14 µM); in the assay with P338, 0.89 µg/mL (≈ 1.33 µM); with HepG2 it was 1.44 µg/mL (≈ 2.15 µM); in the assay on SW480 it was 2.61 µg/mL (≈ 3.89 µM); in assay [1], 1.28 µg/mL (≈ 1.91 µM).

`C/C1=C\CC(C)(C)/C=C/C(=O)N(Cc2cn(CCOc3ccc(C(=O)/C=C/c4ccc(C)cc4)c(O)c3)nn2)/C(C)=C/CC1`: the IC50 was 1.21 µg/mL (≈ 2.03 µM) in the assay on MCF7; 0.92 µg/mL (≈ 1.55 µM) in the assay on P338; 0.87 µg/mL (≈ 1.46 µM) in the assay with HepG2; 1.16 µg/mL (≈ 1.95 µM) in the assay with SW480; 0.91 µg/mL (≈ 1.53 µM) in assay [1].

`COc1ccc(/C=C/C(=O)c2ccc(OCCn3cc(CN4C(=O)/C=C/C(C)(C)C/C=C(\C)CC/C=C/4C)nn3)cc2O)cc1OCCCN1CCOCC1`: the IC50 in the assay on MCF7 was determined as 1.13 µg/mL (≈ 1.5 µM); in the assay on P338, 0.96 µg/mL (≈ 1.27 µM); with HepG2, 1.59 µg/mL (≈ 2.11 µM); in the assay with SW480, 0.91 µg/mL (≈ 1.21 µM); in assay [1] it was 1.56 µg/mL (≈ 2.07 µM).

As for `C/C1=C\CC(C)(C)/C=C/C(=O)N(Cc2cn(CCOc3ccc(C(=O)/C=C/c4ccc(C(C)C)cc4)c(O)c3)nn2)/C(C)=C/CC1`, the half-maximal inhibitory concentration (IC50) in the assay with MCF7 was determined as 0.93 µg/mL (≈ 1.49 µM); with P338 it was 1.39 µg/mL (≈ 2.23 µM); in the assay with HepG2, 0.84 µg/mL (≈ 1.35 µM); in the assay with SW480 it was 0.85 µg/mL (≈ 1.36 µM); in assay [1] it was 0.77 µg/mL (≈ 1.24 µM).

Consider `COc1ccc(/C=C/C(=O)c2ccc(OCCCN3C(=O)/C=C/C(C)(C)C/C=C(\C)CC/C=C/3C)cc2)cc1`, for which the IC50 was 3.17 µg/mL (≈ 6.01 µM) in the assay on MCF7; 1.3 µg/mL (≈ 2.46 µM) in the assay with P338; 1.73 µg/mL (≈ 3.28 µM) with HepG2; 2.92 µg/mL (≈ 5.53 µM) in the assay with SW480; 2.56 µg/mL (≈ 4.85 µM) in assay [1].

`COc1cccc(/C=C/C(=O)c2ccc(OCCCN3C(=O)/C=C/C(C)(C)C/C=C(\C)CC/C=C/3C)cc2)c1`: the half-inhibitory concentration (IC50) in the assay on MCF7 came out at 1.37 µg/mL (≈ 2.6 µM); with P338, 1.1 µg/mL (≈ 2.08 µM); in the assay with HepG2, 1.38 µg/mL (≈ 2.62 µM); with SW480, 1.34 µg/mL (≈ 2.54 µM); in assay [1] it was 1.06 µg/mL (≈ 2.01 µM).

For `COc1ccccc1/C=C/C(=O)c1ccc(OCCCN2C(=O)/C=C/C(C)(C)C/C=C(\C)CC/C=C/2C)cc1`, the IC50 in the assay on MCF7 was 1.56 µg/mL (≈ 2.96 µM); in the assay with P338 it was 0.83 µg/mL (≈ 1.57 µM); with HepG2, 1.44 µg/mL (≈ 2.73 µM); in the assay on SW480, 1.33 µg/mL (≈ 2.52 µM); in assay [1] it was 2.82 µg/mL (≈ 5.34 µM).

Consider `COc1cc(/C=C/C(=O)c2ccc(OCCCN3C(=O)/C=C/C(C)(C)C/C=C(\C)CC/C=C/3C)cc2)cc(OC)c1OC`, for which the concentration for half-maximal inhibition (IC50) in the assay on MCF7 was 0.58 µg/mL (≈ 0.987 µM); with P338, 0.77 µg/mL (≈ 1.31 µM); in the assay on HepG2, 0.99 µg/mL (≈ 1.68 µM); in the assay with SW480 it was 0.71 µg/mL (≈ 1.21 µM); in assay [1] it was 1.01 µg/mL (≈ 1.72 µM).

Regarding `C/C1=C\CC(C)(C)/C=C/C(=O)N(CCCOc2ccc(C(=O)/C=C/c3ccc(C)cc3)cc2)/C(C)=C/CC1`, the concentration for half-maximal inhibition (IC50) came to 1.21 µg/mL (≈ 2.36 µM) with MCF7; 1.29 µg/mL (≈ 2.52 µM) in the assay with P338; 1.53 µg/mL (≈ 2.99 µM) in the assay with HepG2; 1.57 µg/mL (≈ 3.07 µM) with SW480; 1.18 µg/mL (≈ 2.31 µM) in assay [1].

`COc1ccc(/C=C/C(=O)c2ccc(OCCCN3C(=O)/C=C/C(C)(C)C/C=C(\C)CC/C=C/3C)cc2)cc1OCCCN1CCOCC1`: the IC50 in the assay on MCF7 came out at 1.07 µg/mL (≈ 1.59 µM); in the assay on P338, 1.08 µg/mL (≈ 1.61 µM); in the assay on HepG2 it was 1.53 µg/mL (≈ 2.28 µM); with SW480, 0.8 µg/mL (≈ 1.19 µM); in assay [1], 1.22 µg/mL (≈ 1.82 µM).

With `C/C1=C\CC(C)(C)/C=C/C(=O)N/C(C)=C/CC1`, the 50% inhibitory concentration (IC50) in the assay with MCF7 was determined as 15.6 µg/mL (≈ 67 µM); in the assay on P338, 6.25 µg/mL (≈ 26.8 µM); in the assay with HepG2, 34.6 µg/mL (≈ 148 µM); with SW480 it was 6.83 µg/mL (≈ 29.3 µM); in assay [1], 17.8 µg/mL (≈ 76.4 µM).

In the case of `Cc1c2ccncc2c(C)c2c1[nH]c1ccccc12` [ELLIPTECINE], the IC50 came out at 0.44 µg/mL (≈ 1.79 µM) with MCF7; 0.44 µg/mL (≈ 1.79 µM) with P338; 0.36 µg/mL (≈ 1.46 µM) in the assay with HepG2; 0.38 µg/mL (≈ 1.54 µM) with SW480; 0.63 µg/mL (≈ 2.56 µM) in assay [1].

Take `C/C1=C\CC(C)(C)/C=C/C(=O)/C(C)=C/CC1` [ZERUMBONE]: the IC50 came out at 9.67 µg/mL (≈ 44.3 µM) with MCF7; 2.63 µg/mL (≈ 12 µM) in the assay on P338; 13.3 µg/mL (≈ 61.1 µM) in the assay with HepG2; 2.5 µg/mL (≈ 11.5 µM) with HeLa; 3.15 µg/mL (≈ 14.4 µM) in the assay on SW480; 6.05 µg/mL (≈ 27.7 µM) in assay [1].
